From patent US10259827B2, “BMP potentiators” (NOVARTIS AG, priority 2016, dated 2019)

What was measured:
[1] = system: C2C12-IDBRE-luciferase cells; experiment: BMP activity, C2C12-IDBRE-luciferase reporter assay; assay type: cell-based; conditions: 24 hours after treatment, 100% activity = luminescence 200% of DMSO control, read-out: Qualified absolute AC50
Experimental: C2C12-IDBRE-luciferase reporter line was established by infecting C2C12 cells with lentiviruses with IDBRE-luciferase pLenti6 plasmid with Blasticidin resistance.
C2C12-IDBRE-luciferase cells were plated to 384-well plate at 5000 cells in 36 μl DMEM plus 10% FBS at day 0. Cells were treated with different doses of compounds at day 1. Bright-Glo™ Luciferase Assay (Promega, catalog # E2650) was performed with EnVision plate reader (PerkinElmer) 24 hours after treatment at day 2. 0% activity is equal to DMSO control. 100% activity means Luminescence reading for a compound is 200% of luminescence reading of DMSO control. The formula to calculate the activity is: 100*(Luminescence_compound−Luminescence_DMSO)/Luminescence_DMSO

[2] = system: 293T-NFAT-luciferase cells; experiment: Calcineurin inhibition, 293T-NFAT-luciferase reporter assay; assay type: cell-based; conditions: 293T-NFAT-luciferase cells co-treated with 100 ng/ml PMA and 1 μM Ionomycin, 24 hours after treatment; read-out: NFAT-luc IC50
Experimental: NFAT-luciferase reporter line was established by transfecting NFAT-luciferase/pTranslucent (Panomics #LR0050) and Puromycin-resistance plasmid together into 293T cells.
293T-NFAT-luciferase cells were plated to 384-well plate at 10000 cells in 32 μl DMEM plus 10% FBS at day 0. Cells were treated with different doses of compounds at day 1. Half an hour after compound treatment, 293T-NFAT-luciferase cells were co-treated with 100 ng/ml PMA (PHORBOL 12-MYRISTATE 13-ACETAT, Sigma, catalog #P8139-1MG) and 1 μM Ionomycin (Sigma, catalog #10634-1MG). Bright-Glo™ Luciferase Assay (Promega, catalog # E2650) was performed with EnVision plate reader (PerkinElmer) 24 hours after treatment at day 2.

SMILES	AC50 [1] [nM]	IC50 [2] [nM]
CC[C@H]1C(=O)C[C@H](O)[C@@H](C)[C@@H](/C(C)=C/[C@@H]2CC[C@@H](O)[C@H](OC)C2)OC(=O)[C@@H]2CCCCN2C(=O)C(=O)[C@]2(O)O[C@H]([C@@H](OC)C[C@@H](C)C[C@]3(C)O[C@@H]13)[C@@H](OC)C[C@H]2C [Compound C]	201	33
CO[C@H]1C[C@@H](C)C/C(C)=C/[C@@H](C/C=C/C2(O)COC2)C(=O)C[C@H](O)[C@@H](C)[C@@H](/C(C)=C/[C@@H]2CC[C@@H](O)[C@H](OC)C2)OC(=O)[C@@H]2CCCCN2C(=O)C(=O)[C@]2(O)O[C@H]1[C@@H](OC)C[C@H]2C [Compound A]	91	> 50000
CC[C@H]1C(=O)C[C@H](O)[C@@H](C)[C@@H](/C(C)=C/[C@@H]2CC[C@@H](O)[C@H](OC)C2)OC(=O)[C@@H]2CCCCN2C(=O)C(=O)[C@]2(O)O[C@H]([C@@H](OC)C[C@@H](C)C[C@@]3(C)O[C@H]13)[C@@H](OC)C[C@H]2C [Compound B]	24	> 50000
C=CC[C@@H]1/C=C(\C)C[C@H](C)C[C@H](OC)[C@H]2O[C@@](O)(C(=O)C(=O)N3CCCC[C@H]3C(=O)O[C@H](/C(C)=C/[C@@H]3CC[C@@H](O)[C@H](OC)C3)[C@H](C)[C@@H](O)CC1=O)[C@H](C)C[C@@H]2OC [FK-506, reference compound]	24	0.05
